Data published in patent US5436254A, “Carbostyril derivatives” (Otsuka Pharmaceutical Company, Ltd., priority 1989, dated 1995).
Read-outs that look alike come from different tables or passages of the source.

Target: V1 receptor (Rattus norvegicus, UniProt P30560)
Assay: biochemical
Assay type: binding
[1] = [H]3-Arg-vasopressin 2×10^-10 M, rat liver plasma membrane, 37° C., 10 minutes, pH 8.0

Sequence of V1 receptor (P30560 whole entry): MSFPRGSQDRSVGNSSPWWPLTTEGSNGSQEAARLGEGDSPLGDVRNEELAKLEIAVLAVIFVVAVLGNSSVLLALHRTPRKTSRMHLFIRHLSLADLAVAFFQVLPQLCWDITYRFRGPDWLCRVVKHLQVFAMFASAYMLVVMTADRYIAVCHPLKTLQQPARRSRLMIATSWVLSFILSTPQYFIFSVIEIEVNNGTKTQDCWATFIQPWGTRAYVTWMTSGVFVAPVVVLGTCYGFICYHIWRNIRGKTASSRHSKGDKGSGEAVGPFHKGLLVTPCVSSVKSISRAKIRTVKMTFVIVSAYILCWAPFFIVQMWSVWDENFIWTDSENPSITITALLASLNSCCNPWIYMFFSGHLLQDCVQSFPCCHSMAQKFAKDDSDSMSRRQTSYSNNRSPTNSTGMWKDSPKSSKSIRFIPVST

Compound	IC50 [nM]	IC50 [1] [nM]
CCN(CC)CC(O)CCCCOc1ccc(C(=O)N2CCC(N3C(=O)CCc4c(F)cc(F)cc43)CC2)c(OC)c1 (stereo not drawn) [Example 201, 5,7-Difluoro-1-(1-[2-methoxy-4-(5-hydroxy-6-diethylaminohexyloxy)benzoyl]-4-piperidinyl}-3,4-dihydrocarbostyril]	8	–
O=C(c1ccc(OCCCCC(O)CN2CCCC2)cc1)N1CCC(N2C(=O)CCc3ccccc32)CC1 (stereo not drawn) [Example 202, 1-{1-[4-(5-Hydroxy-6-(1-pyrrolidinyl)hexyloxy)benzoyl]-4-piperidinyl}-3,4-dihydrocarbostyril]	27	–
CN(CCc1ccccc1)CC(O)CCCCOc1ccc(C(=O)N2CCC(N3C(=O)CCc4ccccc43)CC2)cc1 (stereo not drawn) [Example 203, 1-{1-[4-(5-Hydroxy-6-[N-(2-phenylethyl)-N-methylamino]hexyloxy)benzoyl]-4-piperidinyl)-3,4-dihydrocarbostyril]	49	–
CN(CCO)CC(O)CCCCOc1ccc(C(=O)N2CCC(N3C(=O)CCc4ccccc43)CC2)cc1 (stereo not drawn) [Example 204, 1-{1-[4-(5-Hydroxy-6-[N-(2-hydroxyethyl)-N-methylamino]hexyloxy)benzoyl]-4-piperidinyl}-3,4-dihydrocarbostyril]	59	–
O=C(c1ccc(OCCCCC(O)CN2CCN(c3ccccc3)CC2)cc1)N1CCC(N2C(=O)CCc3ccccc32)CC1 (stereo not drawn) [Example 205, 1-{1-[4-(5-Hydroxy-6-(4-phenyl-1-piperazinyl)hexyloxy)benzoyl]-4-piperidinyl}-3,4-dihydrocarbostyril]	120	–
O=C(c1ccc(OCCCCCCC(O)CN2CCCC2)cc1)N1CCC(N2C(=O)CCc3ccccc32)CC1 (stereo not drawn) [Example 206, 1-(1-[4-(7-Hydroxy-8-(1-pyrrolidinyl)octyloxy)benzoyl]-4-piperidinyl)-3,4-dihydrocarbostyril]	30	–
CSCCC(NC(C)=O)C(=O)NCCCOc1ccc(C(=O)N2CCC(N3C(=O)CCc4ccccc43)CC2)cc1 (stereo not drawn) [Example 207, 1-(1-[4-(3-(2-Acetylamino-4-methylthiobutyrylamino)propoxy)benzoyl]-4-piperidinyl}-3,4-dihydrocarbostyril]	70	–
CC(=O)N[C@H](Cc1c[nH]cn1)C(=O)NCCCOc1ccc(C(=O)N2CCC(N3C(=O)CCc4ccccc43)CC2)cc1 [Example 208, 1-{1-[4-(3-[2-(R)-Acetylamino-2-(4(1H)-imidazolyl)methylacetylamino]propoxy)benzoyl]-4-piperidinyl}-3,4-dihydrocarbostyril]	100	–
O=C(CCCCCOc1ccc(C(=O)N2CCC(N3C(=O)CCc4ccccc43)CC2)cc1)NC1CCNCC1 [Example 210, 1-{1-[4-(5-(4-Piperidinyl)aminocarbonylpentyloxy)benzoyl]-4-piperidinyl}-3,4-dihydrocarbostyril]	23	–
NC(=O)OCCCCCCOc1ccc(C(=O)N2CCC(N3C(=O)CCc4ccccc43)CC2)cc1 [Example 212, 1-{1-[4-(6-Carbamoyloxyhexyloxy)benzoyl]-4-piperidinyl}-3,4-dihydrocarbostyril]	160	–
CCN(CC)CCCCCCOc1ccc(C(=O)N2CCC(N3C(=O)CCc4ccccc43)CC2)cc1 [Example 213, 1-{1-[4-(6-Diethylaminohexyloxy)benzoyl]-4-piperidinyl}-3,4-dihydrocarbostyril]	59	–
O=C(c1ccc(OCCCCCCN2CCCC2)cc1)N1CCC(N2C(=O)CCc3ccccc32)CC1 [Example 214, 1-{1-[4-(6-(1-Pyrrolidinyl)hexyloxy)benzoyl]-4-piperidinyl}-3,4-dihydrocarbostyril.]	58	–
CCOc1ccc(C(=O)N2CCC(N3C(=O)CCc4c(C)cccc43)CC2)c(OC)c1 [Example 216, 5-Methyl-1-[1-(2-methoxy-4-ethoxybenzoyl)-4-piperidinyl]-3,4-dihydrocarbostyril]	41	–
CC(C)NCC(O)CCCCOc1ccc(C(=O)N2CCC(N3C(=O)CCc4ccccc43)CC2)cc1 (stereo not drawn) [Example 217, 1-{1-[4-(5-Hydroxy-6-isopropylaminohexyloxy)benzoyl]-4-piperidinyl}-3,4-dihydrocarbostyril]	53	–
CCN(CC(O)CCCCOc1ccc(C(=O)N2CCC(N3C(=O)CCc4ccccc43)CC2)cc1)CC1CCCCO1 (stereo not drawn) [Example 218, 1-{1-[4-(5-Hydroxy-6-[N-ethyl-N-(2-tetrahydropyranylmethyl)amino]hexyloxy)benzoyl]-4-piperidinyl}-3,4-dihydrocarbostyril]	44	–
CN(CC(O)CCCCOc1ccc(C(=O)N2CCC(N3C(=O)CCc4ccccc43)CC2)cc1)CC(O)c1ccccc1 (stereo not drawn) [Example 219, 1-{1-[4-(5-Hydroxy-6-[N-methyl-N-(2-hydroxy-4-phenylethyl)amino]hexyloxy)benzoyl]-4-piperidinyl}-3,4-dihydrocarbostyril]	–	60
O=C(c1ccc(OCCCCC(O)CN2CCC[C@H]2CO)cc1)N1CCC(N2C(=O)CCc3ccccc32)CC1 (stereo partly drawn) [Example 220]	20	–
O=C(NCCCC[C@H](NC(=O)OCc1ccccc1)C(=O)NCCCOc1ccc(C(=O)N2CCC(N3C(=O)CCc4ccccc43)CC2)cc1)OCc1ccccc1 [Example 222, 1-[1-{4-[3-(S)-{N,N'76434 -Di(benzyloxycarbonyl)lysyl)aminopropoxy]benzoyl}-4-piperidinyl]-3,4-dihydrocarbostyril]	650	–

Compound	IC50 [nM]	IC50 [1] [nM]
N[C@@H](Cc1ccc(O)cc1)C(=O)NCCCOc1ccc(C(=O)N2CCC(N3C(=O)CCc4ccccc43)CC2)cc1 [Example 223, 1-[1-{4-[3-(S)-Tyrosylaminopropoxy]benzoyl}-4-piperidinyl]-3,4-dihydrocarbostyril]	72	–
O=C(NCCCOc1ccc(C(=O)N2CCC(N3C(=O)CCc4ccccc43)CC2)cc1)[C@@H]1CCCN1 [Example 224, 1-{1-[4-(3-(S)-Prolylaminopropoxy)benzoyl]-4-piperidinyl]-3,4-dihydrocarbostyril]	94	–
CC(C)[C@@H](N)C(=O)NCCCOc1ccc(C(=O)N2CCC(N3C(=O)CCc4ccccc43)CC2)cc1 [Example 225, 1-[1-{4-(3-(R)-Valylaminopropoxy]benzoyl]-4-piperidinyl]-3,4-dihydrocarbostyril]	99	–
O=C(N[C@@H](CO)C(=O)NCCCOc1ccc(C(=O)N2CCC(N3C(=O)CCc4ccccc43)CC2)cc1)OCc1ccccc1 [Example 226, 1-[1-{4-(3-(S)-{N-(Benzyloxycarbonyl)seryl}aminopropoxy]benzoyl)-4-piperidinyl]-3,4-dihydrocarbostyril]	480	–
C=CCN1CCN(CCCCOc2ccc(C(=O)N3CCC(N4C(=O)CCc5ccccc54)CC3)cc2)CC1 [Example 227, 1-{1-(4-[4-(4-Allyl-1-piperazinyl)butoxy]benzoyl)-4-piperidinyl)-3,4-dihydrocarbostyril]	130	–
O=C(CCl)NCCCCOc1ccc(C(=O)N2CCC(N3C(=O)CCc4ccccc43)CC2)cc1 [Example 228, 1-{1-(4-[4-(2-Chloroacetylamino)butoxy]benzoyl)-4-piperidinyl)-3,4-dihydrocarbostyril]	200	–
CC(=O)OCC(=O)NCCCCCOc1ccc(C(=O)N2CCC(N3C(=O)CCc4ccccc43)CC2)cc1 [Example 229, 1-{1-(4-[5-(2-Acetoxyacetylamino)pentyloxy]benzoyl)-4-piperidinyl]-3,4-dihydrocarbostyril]	200	–
O=C(CO)NCCCCCOc1ccc(C(=O)N2CCC(N3C(=O)CCc4ccccc43)CC2)cc1 [Example 230, 1-[1-(4-[5-(2-Hydroxyacetylamino)pentyloxy]benzoyl)-4-piperidinyl)-3,4-dihydrocarbostyril]	180	–
O=C(NCCCCOc1ccc(C(=O)N2CCC(N3C(=O)CCc4ccccc43)CC2)cc1)C1CCNCC1 [Example 231, 1-[1-(4-[4-(4-Piperidinylcarbonylamino)butoxy]benzoyl)-4-piperidinyl)-3,4-dihydrocarbostyril]	41	–
CC(=O)N1CCC(C(=O)NCCCCOc2ccc(C(=O)N3CCC(N4C(=O)CCc5ccccc54)CC3)cc2)CC1 [Example 232, 1-{1-(4-[4-(1-Acetyl-4-piperidinylcarbonylamino)butoxy]benzoyl)-4-piperidinyl)-3,4-dihydrocarbostyril]	120	–
O=C(c1ccc(OCCCCCN2CCN(c3ncccn3)CC2)cc1)N1CCC(N2C(=O)CCc3ccccc32)CC1 [Example 233, 1-{1-(4-[5-(4-[2-Pyrimidyl]-1-piperazinyl)pentyloxy]benzoyl)-4-piperidinyl}-3,4-dihydrocarbostyril]	210	–
O=C(c1ccc(OCCCCCN2CCN(c3ccccn3)CC2)cc1)N1CCC(N2C(=O)CCc3ccccc32)CC1 [Example 234, 1-{1-(4-[5-(4-[2-Pyridyl]-1-piperazinyl)pentyloxy]benzoyl)-4-piperidinyl}-3,4-dihydrocarbostyril]	180	–
CC[N+](CC)(CC)CCCCCOc1ccc(C(=O)N2CCC(N3C(=O)CCc4ccccc43)CC2)cc1 [Example 235, 1-{1-[4-(5-Triethylammouniumpentyloxy)benzoyl]-4-piperidinyl)-3,4-dihydrocarbostyril bromide]	66	–
O=C(c1ccc(OCCCCCn2ccnc2)cc1)N1CCC(N2C(=O)CCc3ccccc32)CC1 [Example 236]	–	260
O=C(c1ccc(OCCCCCn2cncn2)cc1)N1CCC(N2C(=O)CCc3ccccc32)CC1 [Example 237]	–	75
O=C(c1ccc(OCCCCCN2CCC[C@H]2CO)cc1)N1CCC(N2C(=O)CCc3ccccc32)CC1 [Example 238, 1-(1-(4-[5-(2-(S)-Hydroxymethyl-1-pyrrolidinyl)pentyloxy]benzoyl)-4-piperidinyl}-3,4-dihydrocarbostyril]	33	–
COC(=O)[C@@H]1CCCN1CCCCCOc1ccc(C(=O)N2CCC(N3C(=O)CCc4ccccc43)CC2)cc1 [Example 239, 1-{1-(4-[5-(2-(S)-Methoxycarbonyl-1-pyrrolidinyl)pentyloxy]benzoyl)-4-piperidinyl}-3,4-dihydrocarbostyril]	150	–
O=C(c1ccc(OCCCCCN2CCCC(O)C2)cc1)N1CCC(N2C(=O)CCc3ccccc32)CC1 (stereo not drawn) [Example 240, 1-{1-(4-[5-(3-Hydroxy-1-piperidinyl)pentyloxy]benzoyl)-4-piperidinyl}-3,4-dihydrocarbostyril]	48	–
